One test has as its target human M4 receptor (Homo sapiens (Human), UniProt P08173). The test can be described thus: Radioligand (tritiated N-methylscopolamine) binding assay, M4. Particulars: Ki against the M4 receptor; membranes from CHO cells expressing human M4; tritiated N-methylscopolamine 1.5 nM; read-out: Ki. The method in brief: (§1)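 Ki from displacement of 1.5 nM [3H]N-methylscopolamine on membranes of CHO cells expressing each human receptor. Twelve compound concentrations (10 μM to […]), 90 min at 37° C in 50 mM HEPES, 100 mM NaCl, 5 mM MgCl2, 1 mM EDTA, pH 7.4. Bound ligand was captured by PEI-treated glass-fiber filtration and counted.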

Another test concerns the target human M2 receptor (Homo sapiens (Human), UniProt P08172). The test can be described thus: Radioligand (tritiated N-methylscopolamine) binding assay, M2. Particulars: CHO cell membranes expressing human M2; 1.5 nM tritiated N-methylscopolamine; 90 min, 37° C.; read-out: Ki against M2 receptor (Table 21, M2). The method in brief:
as §1

A further test concerns the target human M1 receptor (Homo sapiens (Human), UniProt P11229). The test can be described thus: Radioligand (tritiated N-methylscopolamine) binding assay, M1. Particulars: CHO cell membranes expressing human M1; 1.5 nM tritiated N-methylscopolamine; 90 min, 37° C.; read-out: Ki against M1 receptor (Table 21, M1). The method in brief:
as §1

The target in a further test is human M5 receptor (Homo sapiens (Human), UniProt P08912). The test can be described thus: Radioligand (tritiated N-methylscopolamine) binding assay, M5. Conditions: CHO cell membranes expressing human M5; 1.5 nM tritiated N-methylscopolamine; 90 min, 37° C.; read-out: Ki against M5 receptor (Table 21, M5). Here is the method: (§2) Binding affinity (Ki) of compounds was measured by inhibition of radioligand binding to membranes from CHO cells expressing human M1, M2, M3, M4 and M5 receptors. Membranes were prepared by nitrogen cavitation and differential centrifugation as previously described (Hoare et al., Mol. Pharmacol. 2003 March; 63(3): 751-65). The radioligand employed was tritiated N-methylscopolamine, used at a concentration of 1.5 nM. A dose-response of twelve concentrations of compound was used, ranging from 10 μM to […]. The assay buffer was 50 mM HEPES, 100 mM NaCl, 5 mM MgCl2, 1 mM ethylenediaminetetraacetic acid, pH-adjusted to pH 7.4. Membranes, radioligand and compound were incubated together for 90 minutes at 37° C., in a total volume of 150 μl in a 96-well plate. Receptor-bound radioligand was then collected by harvesting the assay over glass fiber filters pretreated with polyethylenimine to trap the cell membranes, using rapid vacuum filtration. Harvesting and radioactivity counting was conducted as previously described (see, e.g., Hoare et al., Mol. Pharmacol. 2003 63(3):751-65); Erratum at Mol. Pharmacol. 2005 July; 68(1): 260).
Sequence of human M5 receptor (P08912 whole entry): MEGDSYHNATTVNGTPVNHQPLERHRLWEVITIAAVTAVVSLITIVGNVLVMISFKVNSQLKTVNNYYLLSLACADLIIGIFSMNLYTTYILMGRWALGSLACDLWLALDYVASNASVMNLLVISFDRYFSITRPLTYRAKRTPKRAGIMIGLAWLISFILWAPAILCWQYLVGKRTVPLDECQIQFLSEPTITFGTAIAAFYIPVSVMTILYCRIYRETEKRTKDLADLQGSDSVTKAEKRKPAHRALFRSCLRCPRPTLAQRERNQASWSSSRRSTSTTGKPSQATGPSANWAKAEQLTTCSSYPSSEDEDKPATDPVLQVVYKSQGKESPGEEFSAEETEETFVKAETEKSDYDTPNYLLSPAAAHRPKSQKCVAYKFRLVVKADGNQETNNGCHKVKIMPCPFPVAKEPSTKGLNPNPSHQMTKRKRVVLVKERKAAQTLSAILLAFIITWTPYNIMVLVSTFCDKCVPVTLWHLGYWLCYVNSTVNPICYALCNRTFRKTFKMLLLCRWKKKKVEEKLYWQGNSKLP

The target of the next test is human M3 receptor (Homo sapiens (Human), UniProt P20309). In words: Radioligand (tritiated N-methylscopolamine) binding assay, M3. Conditions: CHO cell membranes expressing human M3; 1.5 nM tritiated N-methylscopolamine; 90 min, 37° C.; read-out: Ki against M3 receptor (Table 21, M3). Here is the method:
as §2

Data on 20 compounds can be found in patent US11033539B2, “Compounds of formulas (VII), (VIII), (IX), (XI), (XII), (XIII), and (XIV) as muscarinic receptor 4(M4) antagonists for treating neurological diseases” (Neurocrine Biosciences, Inc., priority 2015, dated 2021).

Some results are limits rather than exact numbers.

Sequence of human M2 receptor (P08172 whole entry): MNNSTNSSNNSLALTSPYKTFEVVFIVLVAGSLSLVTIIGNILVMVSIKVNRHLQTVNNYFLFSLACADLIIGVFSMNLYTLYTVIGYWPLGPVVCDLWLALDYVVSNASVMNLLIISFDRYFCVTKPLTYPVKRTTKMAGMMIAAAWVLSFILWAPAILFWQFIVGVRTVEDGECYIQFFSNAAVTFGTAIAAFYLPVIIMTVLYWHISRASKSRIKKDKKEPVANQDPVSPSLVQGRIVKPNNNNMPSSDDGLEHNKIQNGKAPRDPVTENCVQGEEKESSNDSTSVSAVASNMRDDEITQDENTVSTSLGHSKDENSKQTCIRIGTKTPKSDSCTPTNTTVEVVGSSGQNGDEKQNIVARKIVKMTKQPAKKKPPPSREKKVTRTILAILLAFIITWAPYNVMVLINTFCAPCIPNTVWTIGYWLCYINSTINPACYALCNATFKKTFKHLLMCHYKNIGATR
Sequence of human M1 receptor (P11229 whole entry): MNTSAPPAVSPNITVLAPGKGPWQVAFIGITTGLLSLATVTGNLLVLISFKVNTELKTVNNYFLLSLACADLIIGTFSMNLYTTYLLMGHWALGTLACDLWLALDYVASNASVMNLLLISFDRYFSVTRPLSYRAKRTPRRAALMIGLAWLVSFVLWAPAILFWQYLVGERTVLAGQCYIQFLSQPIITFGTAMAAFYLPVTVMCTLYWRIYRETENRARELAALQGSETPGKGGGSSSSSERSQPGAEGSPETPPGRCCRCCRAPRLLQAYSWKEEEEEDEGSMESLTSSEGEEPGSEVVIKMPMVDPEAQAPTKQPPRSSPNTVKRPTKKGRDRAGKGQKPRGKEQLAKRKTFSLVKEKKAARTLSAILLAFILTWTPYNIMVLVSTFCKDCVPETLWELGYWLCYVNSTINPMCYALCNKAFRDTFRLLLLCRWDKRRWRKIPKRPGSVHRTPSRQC
Sequence of human M3 receptor (P20309 whole entry): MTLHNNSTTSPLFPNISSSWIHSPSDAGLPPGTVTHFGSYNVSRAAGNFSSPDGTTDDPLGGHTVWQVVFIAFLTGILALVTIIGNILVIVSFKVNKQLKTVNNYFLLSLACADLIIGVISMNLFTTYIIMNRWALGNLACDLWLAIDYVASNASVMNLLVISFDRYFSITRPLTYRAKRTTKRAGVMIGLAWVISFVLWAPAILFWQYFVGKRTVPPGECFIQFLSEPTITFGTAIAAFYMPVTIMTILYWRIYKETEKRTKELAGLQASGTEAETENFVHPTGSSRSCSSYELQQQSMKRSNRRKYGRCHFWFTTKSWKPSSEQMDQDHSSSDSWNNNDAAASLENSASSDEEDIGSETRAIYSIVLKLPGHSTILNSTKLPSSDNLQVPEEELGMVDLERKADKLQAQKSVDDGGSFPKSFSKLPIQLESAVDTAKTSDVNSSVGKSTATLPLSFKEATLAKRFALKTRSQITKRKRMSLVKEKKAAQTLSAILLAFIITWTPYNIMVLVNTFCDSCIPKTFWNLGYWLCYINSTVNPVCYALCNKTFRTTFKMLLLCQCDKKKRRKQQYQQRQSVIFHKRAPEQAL
Sequence of human M4 receptor (P08173 whole entry): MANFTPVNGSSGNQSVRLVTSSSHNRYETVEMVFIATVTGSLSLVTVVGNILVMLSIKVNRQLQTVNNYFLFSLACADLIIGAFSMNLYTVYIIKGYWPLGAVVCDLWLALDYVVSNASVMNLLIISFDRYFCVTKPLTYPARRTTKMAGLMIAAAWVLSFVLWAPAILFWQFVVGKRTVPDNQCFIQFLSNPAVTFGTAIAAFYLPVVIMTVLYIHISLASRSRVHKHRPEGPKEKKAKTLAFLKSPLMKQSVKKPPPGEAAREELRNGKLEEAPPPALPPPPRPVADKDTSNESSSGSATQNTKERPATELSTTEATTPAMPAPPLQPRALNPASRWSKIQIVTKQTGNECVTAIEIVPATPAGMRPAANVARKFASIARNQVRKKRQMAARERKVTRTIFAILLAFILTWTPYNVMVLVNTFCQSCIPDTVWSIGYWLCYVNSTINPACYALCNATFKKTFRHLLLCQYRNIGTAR

With `Cc1c(C(=O)NCCC2CCN(Cc3ccccc3)CC2)cnc2cc(-c3cccc(C(F)(F)F)c3)nn12` [17-1, N-[2-(1-benzylpiperidin-4-yl)ethyl]-7-methyl-2-[3-(trifluoromethyl)phenyl]pyrazolo[1,5-a]pyrimidine-6-carboxamide], the Ki (commonly a measure of affinity in units of concentration, obtained from inhibition or displacement) at human M4 receptor is less than 10 nM; at human M2 receptor, 100 to 1000 nM; on human M1 receptor it was greater than 1000 nM; at human M5 receptor, greater than 1000 nM; on human M3 receptor it was greater than 1000 nM.
Regarding `C[C@@H]1CN(c2nc(Cl)cc(C#N)n2)C[C@H](C)N1C(=O)NCCC1CCN(Cc2ccccc2)CC1` [4-11, (2S,6R)-N-[2-(1-benzylpiperidin-4-yl)ethyl]-4-(4-chloro-6-cyanopyrimidin-2-yl)-2,6-dimethylpiperazine-1-carboxamide], the Ki on human M4 receptor is less than 10 nM; at human M2 receptor, 10 to 100 nM; at human M1 receptor, 100 to 1000 nM; on human M5 receptor, greater than 1000 nM; at human M3 receptor, greater than 1000 nM.
On to `C[C@@H]1CN(c2cnc(C(F)(F)F)nc2)C[C@@H](C)N1C(=O)NCCC1CCN(Cc2ccccc2)CC1` [26-6], for which the inhibition constant (Ki) is less than 10 nM on human M4 receptor; 10 to 100 nM on human M2 receptor; 10 to 100 nM on human M1 receptor; 100 to 1000 nM on human M5 receptor; 100 to 1000 nM on human M3 receptor.
Consider `C[C@H]1CN(c2ccc(OC(F)(F)F)c(C#N)c2)CCN1C(=O)NCCC1CCN(Cc2ccccc2)CC1` [4-21, (2S)-N-[2-(1-benzylpiperidin-4-yl)ethyl]-4-[3-cyano-4-(trifluoromethoxy)phenyl]-2-methylpiperazine-1-carboxamide], for which the inhibition constant (Ki) at human M4 receptor was less than 10 nM; at human M2 receptor it was 10 to 100 nM; on human M1 receptor it was 100 to 1000 nM; at human M5 receptor, greater than 1000 nM; on human M3 receptor, 100 to 1000 nM.
On to `C[C@@H]1CN(c2ccc(F)c(C#N)c2)CCN1C(=O)NCCC1CCN(Cc2ccccc2)CC1` [4-1, (2R)-N-[2-(1-benzylpiperidin-4-yl)ethyl]-4-(3-cyano-4-fluorophenyl)-2-methylpiperazine-1-carboxamide], for which the inhibition constant (Ki) at human M4 receptor is less than 10 nM; on human M2 receptor, 100 to 1000 nM; on human M1 receptor, 100 to 1000 nM; at human M5 receptor, greater than 1000 nM; on human M3 receptor, greater than 1000 nM.
Take `C[C@@H]1CN(c2ccc(C#N)cn2)C[C@H](C)N1C(=O)NCCC1CCN(Cc2ccccc2)CC1` [3-23, (2S,6R)-N-[2-(1-benzylpiperidin-4-yl)ethyl]-4-(5-cyanopyridin-2-yl)-2,6-dimethylpiperazine-1-carboxamide]: the inhibition constant Ki is less than 10 nM at human M4 receptor; 100 to 1000 nM at human M2 receptor; greater than 1000 nM on human M1 receptor; greater than 1000 nM on human M5 receptor; greater than 1000 nM on human M3 receptor.
For the compound `C[C@@H]1CN(c2ccc(C(F)(F)F)cn2)CCN1C(=O)NCCC1CCN(Cc2ccccc2)CC1` [3-14, (2R)-N-[2-(1-benzylpiperidin-4-yl)ethyl]-2-methyl-4-[5-(trifluoromethyl)pyridin-2-yl]piperazine-1-carboxamide], the Ki on human M4 receptor was less than 10 nM; at human M2 receptor it was 10 to 100 nM; on human M1 receptor, 100 to 1000 nM; on human M5 receptor, greater than 1000 nM; at human M3 receptor it was greater than 1000 nM.
Take `C[C@@H]1CN(c2cc(F)nc(F)c2)CCN1C(=O)NCCC1CCN(Cc2ccccc2)CC1` [22-30]: the inhibitory constant (Ki) was less than 10 nM at human M4 receptor; 10 to 100 nM on human M2 receptor; 100 to 1000 nM at human M1 receptor; greater than 1000 nM on human M5 receptor; greater than 1000 nM at human M3 receptor.
On to `C[C@@H]1CN(c2cc(F)c(C#N)c(F)c2)C[C@H](C)N1C(=O)NCCC1CCN(Cc2ccccc2)CC1` [22-9], for which the inhibitory constant (Ki) at human M4 receptor is less than 10 nM; on human M2 receptor, 10 to 100 nM; at human M1 receptor, 100 to 1000 nM; at human M5 receptor, greater than 1000 nM; on human M3 receptor, greater than 1000 nM.
`C[C@@H]1CN(c2ncc(C#N)cn2)C[C@@H](C)N1C(=O)NCCC1CCN(Cc2ccccc2)CC1` [26-2]: the inhibition constant (Ki) is less than 10 nM on human M4 receptor; 100 to 1000 nM at human M2 receptor; greater than 1000 nM at human M1 receptor; greater than 1000 nM at human M5 receptor; greater than 1000 nM on human M3 receptor.
Consider `O=C(NCC(O)C1CCN(Cc2ccccc2)CC1)C1CCN(c2ccc(OC(F)(F)F)cc2)CC1` (stereo not shown) [9-8, N-[2-(1-benzylpiperidin-4-yl)-2-hydroxyethyl]-1-[4-(trifluoromethoxy)phenyl]piperidine-4-carboxamide], for which the Ki at human M4 receptor was less than 10 nM; at human M2 receptor it was 100 to 1000 nM; at human M1 receptor, greater than 1000 nM; on human M5 receptor it was greater than 1000 nM; on human M3 receptor, greater than 1000 nM.
For the compound `N#Cc1cc(N2CCC(C(=O)NC[C@@H](O)C3CCN(Cc4ccccc4)CC3)CC2)ccc1F` [10-58, N-[(2S)-2-(1-benzylpiperidin-4-yl)-2-hydroxyethyl]-1-(3-cyano-4-fluorophenyl)piperidine-4-carboxamide], the inhibitory constant (Ki) on human M4 receptor is less than 10 nM; at human M2 receptor it was greater than 1000 nM; at human M1 receptor, greater than 1000 nM; at human M5 receptor, greater than 1000 nM; on human M3 receptor, greater than 1000 nM.
Regarding `C[C@@H]1CN(c2ncc(C(F)(F)F)cc2F)CCN1C(=O)NCCC1CCN(Cc2ccccc2)CC1` [3-10, (2R)-N-[2-(1-benzylpiperidin-4-yl)ethyl]-4-[3-fluoro-5-(trifluoromethyl)pyridin-2-yl]-2-methylpiperazine-1-carboxamide], the Ki is less than 10 nM at human M4 receptor; 10 to 100 nM at human M2 receptor; 100 to 1000 nM on human M1 receptor; greater than 1000 nM on human M5 receptor; 100 to 1000 nM on human M3 receptor.
As for `N#Cc1cc(OC(F)(F)F)cc(N2CCC(C(=O)NCCC3CCN(Cc4ccccc4)CC3)CC2)c1` [10-23, N-[2-(1-benzylpiperidin-4-yl)ethyl]-1-[3-cyano-5-(trifluoromethoxy)phenyl]piperidine-4-carboxamide], the Ki on human M4 receptor is less than 10 nM; at human M2 receptor, 10 to 100 nM; on human M1 receptor, 100 to 1000 nM; at human M5 receptor it was greater than 1000 nM; on human M3 receptor, greater than 1000 nM.
As to `Cc1ccccc1CN1CCC(CCNC(=O)N2CCN(c3ncc(C(F)(F)F)cn3)C[C@H]2C)CC1` [6-35, (2R)-2-methyl-N-(2-{1-[(2-methylphenyl)methyl]piperidin-4-yl}ethyl)-4-[5-(trifluoromethyl)pyrimidin-2-yl]piperazine-1-carboxamide], the Ki is less than 10 nM at human M4 receptor; 10 to 100 nM at human M2 receptor; 100 to 1000 nM on human M1 receptor; greater than 1000 nM on human M5 receptor; 100 to 1000 nM on human M3 receptor.
Take `N#Cc1cnc(N2CC3CCC(C2)N3C(=O)NCCC2CCN(Cc3ccccc3)CC2)nc1` [8-48, N-[2-(1-benzylpiperidin-4-yl)ethyl]-3-(5-cyanopyrimidin-2-yl)-3,8-diazabicyclo[3.2.1]octane-8-carboxamide]: the Ki at human M4 receptor is less than 10 nM; at human M2 receptor, less than 10 nM; on human M1 receptor, 10 to 100 nM; on human M5 receptor, 100 to 1000 nM; at human M3 receptor it was 100 to 1000 nM.
`C[C@@H]1CN(c2cccc(C#N)c2)CCN1C(=O)NCCC1CCN(Cc2ccccc2)CC1` [4-68, (2R)-N-[2-(1-benzylpiperidin-4-yl)ethyl]-4-(3-cyanophenyl)-2-methylpiperazine-1-carboxamide]: the Ki at human M4 receptor was less than 10 nM; on human M2 receptor, 100 to 1000 nM; at human M1 receptor, 100 to 1000 nM; at human M5 receptor, greater than 1000 nM; on human M3 receptor, greater than 1000 nM.
As to `C[C@@H]1CN(c2cnc(C(F)(F)F)cn2)CCN1C(=O)NCCC1CCN(Cc2ccccc2)CC1` [22-22], the Ki on human M4 receptor is less than 10 nM; on human M2 receptor, 10 to 100 nM; at human M1 receptor, 100 to 1000 nM; on human M5 receptor, greater than 1000 nM; at human M3 receptor it was greater than 1000 nM.
As to `O=C(NCCC1CCN(Cc2ccccc2)CC1)C1CCN(c2ccc(F)c(OC(F)(F)F)c2)CC1` [10-11, N-[2-(1-benzylpiperidin-4-yl)ethyl]-1-[4-fluoro-3-(trifluoromethoxy)phenyl]piperidine-4-carboxamide], the Ki on human M4 receptor is less than 10 nM; on human M2 receptor it was 100 to 1000 nM; at human M1 receptor it was 100 to 1000 nM; on human M5 receptor, greater than 1000 nM; on human M3 receptor, greater than 1000 nM.
Regarding `C[C@@H]1CN(c2cc(F)c(F)c(F)c2)CCN1C(=O)NC[C@@H](O)C1CCN(Cc2ccccc2)CC1` [3-22, (2R)-N-[(2S)-2-(1-benzylpiperidin-4-yl)-2-hydroxyethyl]-2-methyl-4-(3,4,5-trifluorophenyl)piperazine-1-carboxamide], the inhibitory constant (Ki) at human M4 receptor is less than 10 nM; at human M2 receptor, 100 to 1000 nM; at human M1 receptor, greater than 1000 nM; at human M5 receptor, greater than 1000 nM; at human M3 receptor it was greater than 1000 nM.
